Measured values: ChEMBL document CHEMBL1129776, “Design of dual-acting thromboxane antagonist-synthase inhibitors by a mutual prodrug approach” (Bioorg Med Chem Lett, 1996)
Values joined by “and” are separate entries in the source; they are usually repeats but may differ in a detail not shown here. Identical values can stand only once.

Key:
[1] = molecular target: T1, Thromboxane A2 receptor (Homo sapiens, UniProt P21731); assay: Thromboxane (TXA2) receptor antagonist activity using human platelet; assay type: functional; conditions: for Kb: read-out: pA2 (converted)
T1 sequence (P21731 whole entry): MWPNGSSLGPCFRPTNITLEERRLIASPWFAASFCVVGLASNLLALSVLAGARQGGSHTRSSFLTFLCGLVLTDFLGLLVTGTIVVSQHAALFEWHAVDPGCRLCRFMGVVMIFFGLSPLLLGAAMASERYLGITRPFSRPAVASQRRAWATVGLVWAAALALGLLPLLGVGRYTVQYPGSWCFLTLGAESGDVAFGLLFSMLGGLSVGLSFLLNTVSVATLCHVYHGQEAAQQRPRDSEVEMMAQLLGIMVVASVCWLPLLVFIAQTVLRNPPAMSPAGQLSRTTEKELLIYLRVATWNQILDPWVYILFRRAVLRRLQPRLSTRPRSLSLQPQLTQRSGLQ

[2] = system: Canis familiaris; assay: Compound was tested for plasma concentration ratio at 8 hr in conscious dogs at specified time intervals at a dose of 0.05 mg/kg.; assay type: functional, Canis lupus familiaris
[3] = system: Canis familiaris; assay: Compound was tested for plasma concentration ratio at 2 hr in conscious dogs at specified time intervals at a dose of 0.05 mg/kg.; assay type: functional, Canis lupus familiaris
[4] = molecular target: T2, Thromboxane-A synthase (Homo sapiens, UniProt P24557); assay: Compound was tested for thromboxane TXA2 synthase inhibitory activity using human platelet
T2 sequence (P24557 whole entry): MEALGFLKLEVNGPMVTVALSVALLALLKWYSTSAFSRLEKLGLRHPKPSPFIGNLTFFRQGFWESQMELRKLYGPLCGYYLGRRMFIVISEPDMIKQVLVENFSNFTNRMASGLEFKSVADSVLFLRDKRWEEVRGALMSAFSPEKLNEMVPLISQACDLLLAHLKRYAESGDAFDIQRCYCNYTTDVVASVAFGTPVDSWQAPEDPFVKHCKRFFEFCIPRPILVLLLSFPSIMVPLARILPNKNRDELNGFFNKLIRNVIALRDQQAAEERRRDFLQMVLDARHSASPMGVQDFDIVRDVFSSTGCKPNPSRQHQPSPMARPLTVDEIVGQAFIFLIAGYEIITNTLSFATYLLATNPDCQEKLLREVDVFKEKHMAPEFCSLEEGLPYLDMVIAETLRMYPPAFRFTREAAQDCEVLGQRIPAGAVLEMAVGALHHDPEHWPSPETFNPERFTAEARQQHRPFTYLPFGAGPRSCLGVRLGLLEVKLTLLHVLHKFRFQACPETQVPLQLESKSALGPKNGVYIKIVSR

[5] = molecular target: T3, Thromboxane-A synthase (Homo sapiens) (UniProt P24557); assay: Compound was evaluated for inhibition of TXA2 synthase by measuring collagen stimulated TXB2 production in the blood samples after 2 hr time at a dose of 0.05 mg/kg; assay type: functional, organism-based; set-up: dose 0.05 mg/kg; conditions: Canis lupus familiaris
T3 sequence (whole entry): T2 sequence (P24557 whole entry)

[6] = molecular target: T3, Thromboxane-A synthase (Homo sapiens); assay: Compound was evaluated for inhibition of TXA2 synthase by measuring collagen stimulated TXB2 production in the blood samples after 8 hr time at a dose of 0.05 mg/kg; assay type: functional, organism-based; set-up: dose 0.05 mg/kg; conditions: Canis lupus familiaris
[7] = system: Canis familiaris; assay: Compound was tested ex vivo for plasma concentration ratio at 2 hr in conscious dogs at specified time intervals at a dose of 0.05 mg/kg.; assay type: functional, Canis lupus familiaris
[8] = system: Canis familiaris; assay: Compound was tested ex vivo for plasma concentration ratio at 8 hr in conscious dogs at specified time intervals at a dose of 0.05 mg/kg.; assay type: functional, Canis lupus familiaris
[9] = system: Canis familiaris; assay: Compound was tested for plasma concentration ratio at 8 hr in conscious dogs at specified time intervals at a dose of 1.0 mg/kg.; assay type: functional, Canis lupus familiaris
[10] = molecular target: T3, Thromboxane-A synthase (Homo sapiens); assay: (§1) Compound was evaluated for inhibition of TXA2 synthase by measuring collagen stimulated TXB2 production in the blood samples after 8 hr time at a dose of 1.0 mg/kg; assay type: functional, organism-based; set-up: dose 1 mg/kg; conditions: Canis lupus familiaris
[11] = molecular target: T3, Thromboxane-A synthase (Homo sapiens); assay: as §1; assay type: functional, organism-based; set-up: dose 1 mg/kg; conditions: Canis lupus familiaris; remark: listed apart in the source
[12] = molecular target: T3, Thromboxane-A synthase (Homo sapiens); assay: Compound was evaluated for inhibition of TXA2 synthase by measuring collagen stimulated TXB2 production in the blood samples after 2 hr time at a dose of 1.0 mg/kg; assay type: functional, organism-based; set-up: dose 1 mg/kg; conditions: Canis lupus familiaris
[13] = system: Canis familiaris; assay: Compound was tested for plasma concentration ratio at 2 hr in conscious dogs at specified time intervals at a dose of 1.0 mg/kg.; assay type: functional, Canis lupus familiaris

| SMILES | IC50 [4] [µM] | inhibition [5] [%] | inhibition [6] [%] | Kb [1] [µM] | other results |
| --- | --- | --- | --- | --- | --- |
| N#Cc1ccc([C@H]2OC[C@@H](C/C=C\CCC(=O)Oc3ccccc3OC(=O)CC/C=C\C[C@@H]3CO[C@H](c4ccccc4Cl)O[C@@H]3c3ccccc3O)[C@@H](c3cccnc3)O2)cc1 (stereo in doubt; 15) [listing 1 of 2 here] | > 10 | – | – | – | pA2 [1]: 5; Ratio ([2]; 0.05 mg/kg): 170; Ratio ([3]; 0.05 mg/kg): 140 |
| N#Cc1ccc([C@H]2OC[C@@H](C/C=C\CCC(=O)Oc3ccccc3OC(=O)CC/C=C\C[C@@H]3CO[C@H](c4ccccc4Cl)O[C@@H]3c3ccccc3O)[C@@H](c3cccnc3)O2)cc1 (stereo in doubt; 15) [listing 2 of 2 here] | – | 54 | 57 | – | – |
| N#Cc1ccc([C@H]2OC[C@@H](C/C=C\CCC(=O)O)[C@@H](c3ccccc3O)O2)cc1 | > 10 | > 50 | > 50 | 0.00501 | Ratio [7]: 60; Ratio [8]: 35 |
| N#Cc1ccc([C@H]2OC[C@@H](C/C=C\CCC(=O)Oc3ccc(OC(=O)CC/C=C\C[C@@H]4CO[C@H](c5ccc(C#N)cc5)O[C@@H]4c4ccccc4O)cc3)[C@@H](c3cccnc3)O2)cc1 | > 10 | – | – | 10 | – |
| N#Cc1ccc([C@H]2OC[C@@H](C/C=C\CCC(=O)NCCCCCCNC(=O)CC/C=C\C[C@@H]3CO[C@H](c4ccc(C#N)cc4)O[C@@H]3c3ccccc3O)[C@@H](c3cccnc3)O2)cc1 | > 10 | – | – | 10 | – |
| N#Cc1ccc([C@H]2OC[C@@H](C/C=C\CCC(=O)OCCCCCCOC(=O)CC/C=C\C[C@@H]3CO[C@H](c4ccc(C#N)cc4)O[C@@H]3c3ccccc3O)[C@@H](c3cccnc3)O2)cc1 | > 10 | – | – | 10 | – |
| N#Cc1ccc([C@H]2OC[C@@H](C/C=C\CCC(=O)Oc3ccccc3OC(=O)CC/C=C\C[C@@H]3CO[C@H](c4ccc(C#N)cc4)O[C@@H]3c3ccccc3O)[C@@H](c3cccnc3)O2)cc1 | > 10 | 68 | < 50 | 10 | Ratio [2]: 283; Ratio [3]: 587 |
| O=C(O)CC/C=C\C[C@@H]1CO[C@H](c2ccccc2Cl)O[C@@H]1c1ccccc1O | > 10 | > 50 | > 50 | – | – |
| N#Cc1ccc([C@H]2OC[C@@H](C/C=C\CCC(=O)NCCNC(=O)CC/C=C\C[C@@H]3CO[C@H](c4ccc(C#N)cc4)O[C@@H]3c3ccccc3O)[C@@H](c3cccnc3)O2)cc1 | > 10 | – | – | 10 | – |
| N#Cc1ccc([C@H]2OC[C@@H](C/C=C\CCC(=O)OCCOC(=O)CC/C=C\C[C@@H]3CO[C@H](c4ccc(C#N)cc4)O[C@@H]3c3ccccc3O)[C@@H](c3cccnc3)O2)cc1 | > 10 | – | – | > 10 | – |
| N#Cc1ccc([C@H]2OC[C@@H](C/C=C\CCC(=O)Oc3ccccc3OC(=O)CC/C=C\C[C@@H]3CO[C@H](c4ccccc4Cl)O[C@@H]3c3ccccc3O)[C@@H](c3cccnc3)O2)cc1 (stereo in doubt; 16 (-)) [listing 1 of 2 here] | > 10 | – | – | 10 | Ratio ([2]; 0.05 mg/kg): 150; Ratio ([3]; 0.05 mg/kg): 35 |
| N#Cc1ccc([C@H]2OC[C@@H](C/C=C\CCC(=O)Oc3ccccc3OC(=O)CC/C=C\C[C@@H]3CO[C@H](c4ccccc4Cl)O[C@@H]3c3ccccc3O)[C@@H](c3cccnc3)O2)cc1 (stereo in doubt; 16 (-)) [listing 2 of 2 here] | – | 31 | 64 | – | – |
| N#Cc1ccc([C@H]2OC[C@@H](C/C=C\CCC(=O)O)[C@@H](c3cccnc3)O2)cc1 | 0.02 | – | – | 1.26 | Ratio [9]: 1.3; inhibition [10]: 93%; inhibition [11]: 84%; inhibition [12]: 97% and 84%; Ratio [13]: 1.4 |
